Columns and labels:
[1] = shake flask on a mixture of 185; loss from the water phase only; LC-Orbitrap peak areas; conditions: room
[2] = shake flask on a mixture of 185; loss from the water phase only; LC-QTOF peak areas; conditions: room

| SMILES | log partition 1-octanol / HPLC water, unbuffered, traces of methanol / DMSO [1] | log partition butyl acetate / HPLC water, unbuffered, traces of methanol / DMSO [1] | log partition chloroform / HPLC water, unbuffered, traces of methanol / DMSO [1] | log partition cyclohexane / HPLC water, unbuffered, traces of methanol / DMSO [1] | log partition dichloromethane / HPLC water, unbuffered, traces of methanol / DMSO [1] | log partition n-hexane / HPLC water, unbuffered, traces of methanol / DMSO [1] | log partition n-octane / HPLC water, unbuffered, traces of methanol / DMSO [1] | log partition n-undecane / HPLC water, unbuffered, traces of methanol / DMSO [1] | log partition oleylalcohol / HPLC water, unbuffered, traces of methanol / DMSO [1] | log partition toluene / HPLC water, unbuffered, traces of methanol / DMSO [1] | log partition 1-octanol / HPLC water, unbuffered, traces of methanol / DMSO [2] | log partition butyl acetate / HPLC water, unbuffered, traces of methanol / DMSO [2] | log partition chloroform / HPLC water, unbuffered, traces of methanol / DMSO [2] | log partition cyclohexane / HPLC water, unbuffered, traces of methanol / DMSO [2] | log partition dichloromethane / HPLC water, unbuffered, traces of methanol / DMSO [2] | log partition n-hexane / HPLC water, unbuffered, traces of methanol / DMSO [2] | log partition n-octane / HPLC water, unbuffered, traces of methanol / DMSO [2] | log partition n-undecane / HPLC water, unbuffered, traces of methanol / DMSO [2] | log partition oleylalcohol / HPLC water, unbuffered, traces of methanol / DMSO [2] | log partition toluene / HPLC water, unbuffered, traces of methanol / DMSO [2] |
| --- | --- | --- | --- | --- | --- | --- | --- | --- | --- | --- | --- | --- | --- | --- | --- | --- | --- | --- | --- | --- |
| CCc1nn(C)c(C(=O)NCc2ccc(C(C)(C)C)cc2)c1Cl | 1.459 log10 | 1.634 log10 | 0.2173 log10 | 0.942 log10 | 3.08 log10 | 0.5625 log10 | 1.395 log10 | 0.9075 log10 | 1.51 log10 | 1.132 log10 | 0.9057 log10 | 1.589 log10 | 1.982 log10 | 2.337 log10 | 2.036 log10 | 2.449 log10 | 2.089 log10 | 1.893 log10 | 0.96 log10 | 1.518 log10 |
| Cn1cnc([N+](=O)[O-])c1Sc1ncnc2nc[nH]c12 | 0.3085 log10 | 0.621 log10 | 0.1897 log10 | -1.394 log10 | 0.2139 log10 | -1.636 log10 | -1.543 log10 | -1.518 log10 | 0.1703 log10 | -0.3549 log10 | 0.004535 log10 | -0.2382 log10 | -0.4745 log10 | -1.86 log10 | -0.366 log10 | -1.66 log10 | -2.343 log10 | -2.232 log10 | -0.3513 log10 | -1.048 log10 |
| CCCCOC(=O)C(C)Oc1ccc(Oc2ccc(C(F)(F)F)cn2)cc1 (stereo not shown) | 1.133 log10 | 4.432 log10 | 2.334 log10 | -0.5049 log10 | 3.927 log10 | -1.029 log10 | -0.5477 log10 | -0.5963 log10 | 1.914 log10 | -0.7173 log10 | 1.531 log10 | 1.572 log10 | 2.874 log10 | 2.387 log10 | 2.183 log10 | 2.824 log10 | 2.349 log10 | 2.336 log10 | 1.771 log10 | 2.12 log10 |
| c1coc(-c2nc3ccccc3[nH]2)c1 | 1.137 log10 | 1.189 log10 | 0.9478 log10 | -0.1735 log10 | 1.025 log10 | -0.2475 log10 | -0.314 log10 | -0.8377 log10 | 1.389 log10 | 0.5283 log10 | 1.514 log10 | 1.818 log10 | 1.228 log10 | -0.8199 log10 | 1.187 log10 | -1.048 log10 | -0.9024 log10 | -1.111 log10 | 1.545 log10 | 0.6693 log10 |
| Oc1c(Cl)cc(Cl)cc1Sc1cc(Cl)cc(Cl)c1O |  |  |  |  |  |  |  |  |  |  | 0.7477 log10 | 1.778 log10 | 1.227 log10 | 1.174 log10 | 1.541 log10 | 1.101 log10 | 1.178 log10 | 0.844 log10 | 1.386 log10 | 1.7 log10 |
| O=S(=O)(O)C(F)(F)F |  |  |  |  |  |  |  |  |  |  | -1.49 log10 | -1.234 log10 | 1.635 log10 | -0.7044 log10 | 1.509 log10 | -0.8208 log10 | -0.9229 log10 | -0.955 log10 | -1.56 log10 | -0.8212 log10 |
